Molecules are shown by their SMILES. Values joined by “and” are separate entries in the source; they are usually repeats but may differ in a detail not shown here. Identical values can stand only once.

Common to all, as to format: cell-based, human
For experiment [1], the system named is TNF-α. Nature of the experiment: TNF-α release (ELISA) after UVB irradiation, EpiDerm/keratinocyte model. Conditions: for TNF-α (pg/ml), Sample2 / TNF-α (pg/ml), sample1: TNF-α released into media after UVB ~30 mJ/cm^2; for TNF-α (pg/ml), Sample2: UVB + Vehicle 147; for TNF-α (pg/ml), sample1: UVB + Vehicle 257; for TNF-α Avg.: average of sample 1 and 2, UVB + Vehicle 202. On the procedure:
(§1) Stock solutions of test materials are listed below: • 1. UTL-5d stock: 1.7 mg/ml UTL-5d in a vehicle of 50:50 EtOH:PEG 600 v/v • 2. UTR-1 stock: 3.5 mg/ml UTR-1 in a vehicle of 50:50 EtOH:PEG 600 v/v • 3. Vehicle stock: 50:50 EtOH:PEG 600
(§2) Human epidermal keratinocytes were seeded into 6-well plates and grown at 37±2° C. and 5±1% CO2 using serum free Epilife media supplemented as recommended by the manufacturer. Upon reaching confluency, the media were removed and the cells were treated overnight with Epilife media containing 1% v/v each of the stock solutions above (Vehicle stock and UTR-1 stock). Final concentration was 35 μg/ml for UTR-1. Two wells in the 6-well plate were prepared for each treatment. After applying the test material the cells were incubated for 24 hours at 37±2° C. and 5±1% CO2.
At the end of the incubation period the culture media was removed via aspiration and replaced with phosphate buffered saline. The cells were then irradiated with ˜30 mJ/cm^2 of UVB radiation. Fresh culture media was then applied to the cells and the cells were incubated overnight at 37±2° C. and 5±1% CO2. After the incubation the cell culture media was collected to measure TNF-α release by a commercial ELISA Assay kit.
Background: ELISA stands for enzyme-linked immunosorbent assay.

In experiment [2] the test system is JAK3. Nature of the experiment: Micro array gene expression analysis, JAK3. To be noted: keratinocytes, UVB irradiated; treated/untreated (Cy5/Cy3). On the procedure:
as §1, §2
(§3) At the end of the incubation period the culture media was removed via aspiration and replaced with phosphate buffered saline. […]
(§4) The cells were washed once with PBS and then a trypsin/EDTA solution was added to release the cells, followed by the addition of trypsin neutralizing solution. […] In general, (1) the fluorescence intensity of the gene marker should be greater than the background intensity, and (2) the ratio of Cy5/Cy3 (treated/untreated) fluorescence intensity needs to be greater than 1.3 or less than 0.66 to indicate a change of ±30% in gene expression.

The test system of experiment [3] is MAP3K2. Nature of the experiment: Micro array gene expression analysis, MAP3K2. To be noted: keratinocytes, UVB irradiated; treated/untreated (Cy5/Cy3). On the procedure: as §1, §2, §3, §4
The test system of experiment [4] is APOBEC1. Kind of experiment: Micro array gene expression analysis, APOBEC1. To be noted: keratinocytes, UVB irradiated; treated/untreated (Cy5/Cy3). As to the method:
as §1, §2, §3, §4

The subject of experiment [5] is CDCP1. Nature of the experiment: Micro array gene expression analysis, CDCP1. Conditions: keratinocytes, UVB irradiated; treated/untreated (Cy5/Cy3). As to the method: as §1, §2, §3, §4
In experiment [6] the test system is DEFA6. Nature of the experiment: Micro array gene expression analysis, DEFA6. To be noted: keratinocytes, UVB irradiated; treated/untreated (Cy5/Cy3). On the procedure:
as §1, §2, §3, §4

The subject of experiment [7] is EFA6R. Nature of the experiment: Micro array gene expression analysis, EFA6R. Conditions: keratinocytes, UVB irradiated; treated/untreated (Cy5/Cy3). As to the method:
as §1, §2, §3, §4

Experiment [8] has as its system EPHB4. Nature of the experiment: Micro array gene expression analysis, EPHB4. To be noted: keratinocytes, UVB irradiated; treated/untreated (Cy5/Cy3). As to the method:
as §1, §2, §3, §4

Experiment [9] deals with ITGB6. Nature of the experiment: Micro array gene expression analysis, ITGB6. To be noted: keratinocytes, UVB irradiated; treated/untreated (Cy5/Cy3). On the procedure: as §1, §2, §3, §4
Experiment [10] concerns PTGER1. Nature of the experiment: Micro array gene expression analysis, PTGER1. Conditions: keratinocytes, UVB irradiated; treated/untreated (Cy5/Cy3). As to the method: as §1, §2, §3, §4
Experiment [11] relates to PTGER2. Nature of the experiment: Micro array gene expression analysis, PTGER2. Conditions: keratinocytes, UVB irradiated; treated/untreated (Cy5/Cy3). As to the method:
as §1, §2, §3, §4

In experiment [12] the test system is PTGER3. Nature of the experiment: Micro array gene expression analysis, PTGER3. Conditions: keratinocytes, UVB irradiated; treated/untreated (Cy5/Cy3). On the procedure:
as §1, §2, §3, §4

For experiment [13], the system named is PTGFR. Nature of the experiment: Micro array gene expression analysis, PTGFR. To be noted: keratinocytes, UVB irradiated; treated/untreated (Cy5/Cy3). On the procedure:
as §1, §2, §3, §4

Experiment [14] has as its system PTGIR. Nature of the experiment: Micro array gene expression analysis, PTGIR. To be noted: keratinocytes, UVB irradiated; treated/untreated (Cy5/Cy3). As to the method: as §1, §2, §3, §4
Experiment [15] has as its system TGFB2. Kind of experiment: Micro array gene expression analysis, TGFB2. To be noted: keratinocytes, UVB irradiated; treated/untreated (Cy5/Cy3). As to the method:
as §1, §2, §3, §4

Experiment [16] concerns TNFRSF6B. Kind of experiment: Micro array gene expression analysis, TNFRSF6B. Conditions: keratinocytes, UVB irradiated; treated/untreated (Cy5/Cy3). On the procedure: as §1, §2, §3, §4
Experiment [17] relates to TNFSF13. Nature of the experiment: Micro array gene expression analysis, TNFSF13. To be noted: keratinocytes, UVB irradiated; treated/untreated (Cy5/Cy3). On the procedure: as §1, §2, §3, §4
Experiment [18] relates to TUCAN. Kind of experiment: Micro array gene expression analysis, TUCAN. To be noted: keratinocytes, UVB irradiated; treated/untreated (Cy5/Cy3). On the procedure: as §1, §2, §3, §4

`Cc1cc(C(=O)O)no1` [UTR-1]: in experiment [1], the “TNF-α (pg/ml), Sample2” value came to 119 pg/mL; the “TNF-α (pg/ml), sample1” value was determined as 120 pg/mL; the “TNF-α Avg.” value came out at 120 pg/mL. Besides, in experiment [2], the “JAK3 Gene expression (%)” value was 38.6% and 41.7%. Moreover, the “MAP3K2 Gene expression (%)” value in experiment [3] is 59.2%. The “APOBEC1 Gene expression (%)” value in experiment [4] worked out at 33.3%. For the same molecule, the “CDCP1 Gene expression (%)” value in experiment [5] came to 65.6%. Further, the “DEFA6 Gene expression (%)” value in [6] turned out to be 38.0%. Also, the “EFA6R Gene expression (%)” value in experiment [7] was 37.5%. The “EPHB4 Gene expression (%)” value in experiment [8] is 43.3%. The “ITGB6 Gene expression (%)” value in [9] came out at 30.0%. Further, the “PTGER1 Gene expression (%)” value in experiment [10] was determined as 28.6%. The “PTGER2 Gene expression (%)” value in experiment [11] was 58.0%. Besides, the “PTGER3 Gene expression (%)” value in experiment [12] came out at 40.8%. In addition, the “PTGFR Gene expression (%)” value in experiment [13] is recorded as 40.0%. Further, the “PTGIR Gene expression (%)” value in experiment [14] is given as 39.4%. Further, the “TGFB2 Gene expression (%)” value in [15] came to 57.9%. In addition, in experiment [16], the “TNFRSF6B Gene expression (%)” value was 68.0%. Further, the “TNFSF13 Gene expression (%)” value in [17] is 42.5%. In addition, the “TUCAN Gene expression (%)” value in experiment [18] came to 33.3%.

In the case of `Cc1cc(C(=O)Nc2ccc(Cl)cc2)no1` [UTL-5d], in experiment [1], the “TNF-α (pg/ml), Sample2” value worked out at 67 pg/mL; the “TNF-α (pg/ml), sample1” value came to 61 pg/mL; the “TNF-α Avg.” value was found to be 64 pg/mL. In addition, the “JAK3 Gene expression (%)” value in experiment [2] was 34.7% and 29.3%. For the same molecule, the “MAP3K2 Gene expression (%)” value in experiment [3] came out at 59.9%. For the same molecule, the “APOBEC1 Gene expression (%)” value in experiment [4] is reported as 29.2%. Besides, the “CDCP1 Gene expression (%)” value in experiment [5] was 44.1%. Also, the “DEFA6 Gene expression (%)” value in [6] was determined as 44.3%. Also, the “EFA6R Gene expression (%)” value in [7] is reported as 29.2%. Moreover, the “EPHB4 Gene expression (%)” value in experiment [8] turned out to be 35.8%. In addition, the “ITGB6 Gene expression (%)” value in experiment [9] is on record as 24.3%. In addition, in [10], the “PTGER1 Gene expression (%)” value stood at 33.8%. The “PTGER2 Gene expression (%)” value in experiment [11] is reported as 39.9%. Moreover, the “PTGER3 Gene expression (%)” value in experiment [12] turned out to be 42.7%. The “PTGFR Gene expression (%)” value in [13] was determined as 24.5%. In addition, the “PTGIR Gene expression (%)” value in experiment [14] stood at 27.0%. Moreover, the “TGFB2 Gene expression (%)” value in [15] is 38.2%. In [16], the “TNFRSF6B Gene expression (%)” value amounted to 52.1%. The “TNFSF13 Gene expression (%)” value in [17] came to 47.0%. Further, the “TUCAN Gene expression (%)” value in experiment [18] worked out at 26.0%.

For the origin of these results see patent US20090042958A1, “Composition and method for treating immune-mediated skin disorders” (Geneblue Corporation, priority 2006, published 2009).
